ChEMBL document CHEMBL1914365, “Aminoacyl-tRNA synthetase inhibitors as potential antibiotics” (Eur J Med Chem, 2011)
≈ marks a conversion by molar mass, not a printed value. Blank lines part the entries; values can stand above or below the compound they belong to.

Tests used:
[1] = Inhibition of Trypanosoma brucei Leucyl-tRNA synthetase
[2] = test system: Staphylococcus; experiment: Antibacterial activity against Staphylococcus aureus; type: functional
[3] = test system: Staphylococcus epidermidis; experiment: Antibacterial activity against Staphylococcus epidermidis; type: functional
[4] = test system: Trypanosoma brucei; experiment: Antitrypanosomal activity against Trypanosoma brucei assessed as growth inhibition; type: functional, organism-based
[5] = test system: Staphylococcus aureus; experiment: Antibacterial activity against methicillin-resistant Staphylococcus aureus; type: functional
[6] = test system: Escherichia coli; experiment: Antibacterial activity against Escherichia coli; type: functional
[7] = target: Isoleucine--tRNA ligase (Escherichia coli K-12, UniProt P00956); experiment: Competitive inhibition of Escherichia coli Isoleucyl-tRNA synthetase
[8] = Inhibition of Staphylococcus aureus Methionyl-tRNA synthetase
[9] = Inhibition of Escherichia coli Methionyl-tRNA synthetase
[10] = test system: Staphylococcus aureus; experiment: Antibacterial activity against mupirocin or oxacillin-resistant Staphylococcus aureus; type: functional
[11] = test system: Streptococcus pyogenes; experiment: Antibacterial activity against Streptococcus pyogenes; type: functional

Isoleucine--tRNA ligase, sequence (P00956 whole entry): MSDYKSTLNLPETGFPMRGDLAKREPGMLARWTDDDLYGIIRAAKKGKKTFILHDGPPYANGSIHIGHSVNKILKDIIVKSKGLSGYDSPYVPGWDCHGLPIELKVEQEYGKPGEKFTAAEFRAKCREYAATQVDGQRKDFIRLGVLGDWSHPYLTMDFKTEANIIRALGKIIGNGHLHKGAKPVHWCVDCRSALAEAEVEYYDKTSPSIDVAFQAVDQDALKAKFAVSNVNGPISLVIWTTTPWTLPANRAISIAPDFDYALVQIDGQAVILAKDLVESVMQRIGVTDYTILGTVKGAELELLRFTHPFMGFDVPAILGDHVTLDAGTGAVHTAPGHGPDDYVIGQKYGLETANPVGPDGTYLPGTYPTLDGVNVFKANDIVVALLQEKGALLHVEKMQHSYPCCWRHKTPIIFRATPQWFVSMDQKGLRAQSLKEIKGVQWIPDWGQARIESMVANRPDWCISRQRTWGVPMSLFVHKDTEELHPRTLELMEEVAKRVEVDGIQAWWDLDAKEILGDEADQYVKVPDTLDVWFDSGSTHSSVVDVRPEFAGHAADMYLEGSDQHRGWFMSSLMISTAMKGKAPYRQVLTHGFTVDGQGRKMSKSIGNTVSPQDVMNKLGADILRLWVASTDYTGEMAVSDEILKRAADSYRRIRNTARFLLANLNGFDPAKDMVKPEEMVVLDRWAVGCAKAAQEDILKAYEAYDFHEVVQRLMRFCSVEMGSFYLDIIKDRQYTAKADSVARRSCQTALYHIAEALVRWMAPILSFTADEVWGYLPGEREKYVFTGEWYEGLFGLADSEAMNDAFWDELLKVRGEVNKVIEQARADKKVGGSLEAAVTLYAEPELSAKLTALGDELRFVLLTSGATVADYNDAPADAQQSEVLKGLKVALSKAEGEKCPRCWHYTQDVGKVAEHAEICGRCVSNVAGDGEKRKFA

SMILES: CCOC(=O)COc1ccc2c(c1)B(O)OC2
IC50 [1]: 1600 nM

SMILES: O=C1OCC(NNc2ccc([N+](=O)[O-])cc2)=C1c1ccc(Br)cc1
MIC50 [2]: 0.42 µg/mL (≈ 1.08 µM)

SMILES: CC(=O)C(C)(C)Oc1ccc2c(c1)B(O)OC2
EC50 [4]: 370 nM

SMILES: C/C(=C\C(=O)OCCCCCCCCC(=O)O)C[C@@H]1OC[C@H](C[C@@H]2O[C@H]2[C@@H](C)[C@H](C)O)[C@@H](O)[C@H]1O [MUPIROCIN]
MIC [5]: 0.25 µg/mL (≈ 0.499 µM) | MIC [6]: 128 µg/mL (≈ 256 µM) | Ki [7]: 2.5 nM

SMILES: C=C(F)c1sc(CNCCCNc2cc(=O)c3ccccc3[nH]2)c(C)c1Br [BEDEROCIN]
Ki [8]: 0.01 nM | Ki [9]: 300 nM | MIC90 [10]: 0.5 µg/mL (≈ 1.11 µM) | MIC [11]: 0.03 µg/mL (≈ 0.0666 µM)

Other lines, results leading:

MIC50 [3]: 100 µM (≈ 48.3 µg/mL)
SMILES: CC(C)C[C@H](NC(=O)[C@H](CC(C)C)N1C[C@@H](CNS(=O)(=O)c2ccccc2)NC1=O)C(=O)O

MIC50 [3]: 25 µM (≈ 11.6 µg/mL)
SMILES: CC(C)C[C@H](NC(=O)[C@H](CC(C)C)N1C[C@@H](CNC(=O)Nc2ncccn2)NC1=O)C(=O)O

MIC50 [3]: 6.25 µM (≈ 2.88 µg/mL)
SMILES: CC(C)C[C@H](NC(=O)[C@H](CC(C)C)N1C[C@@H](CNC(=O)Nc2ccccc2)NC1=O)C(=O)O
